Results: the supplement of paper PMC6045584
± gives the standard deviation of the averaged measurements.

compound: COc1cc(CCc2cc(NC(=O)c3ccc(N4CC(C)NC(C)C4)cc3)n[nH]2)cc(OC)c1 [AZD4547]; experiment: surviving fraction relative to DMSO-only wells; higher = less growth inhibition; conditions: 0.5 nM; exposure time: 5 days
Procedure, shortened: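 Lines were retained only if, across three screens, replicate Pearson r was >0.7 and median Z' was >0.3. Viability was measured as CellTiter-Glo luminescence and reported as surviving fraction relative to the median of DMSO-only wells. Readings followed 10 minutes at room temperature, after log-phase tumour cells seeded at 250–500 per well in 384-well plates had been exposed, from 24 hours after seeding, continuously for five days to inhibitors at 0.5, 1, 5, 10, 50, 100, 500 and 1000 nM.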

Test System | surviving fraction
22RV1 PROSTATE | 1 ± 0.06
93VU HEADNECK | 1.01 ± 0.063
143B BONE | 0.948 ± 0.096
A549 LUNG | 0.984 ± 0.02
ASKA SYNOVIAL | 1.15 ± 0.06
BT20 BREAST | 1.12 ± 0.13
BT549 BREAST | 1.16 ± 0.2
CADOES1 SOFT TISSUE | 0.988 ± 0.032
CAL51 BREAST | 0.9767 ± 0.007
CAL120 BREAST | 0.945 ± 0.043
CASKI CERVIX | 0.927 ± 0.055
CHLA90 AUTONOMIC GANGLIA | 0.994 ± 0.075
CME SYNOVIAL | 1.21 ± 0.046
COLO320DM LARGE INTESTINE | 1.08 ± 0.027
DU4475 BREAST | 1.12 ± 0.37
H23 LUNG | 0.965 ± 0.059
HCC38 BREAST | 0.972 ± 0.24
HCC70 BREAST | 1.03 ± 0.11
HCC78 LUNG | 1.04 ± 0.2
HCC202 BREAST | 0.984 ± 0.2

Test System | surviving fraction
HCC1806 BREAST | 1.04 ± 0.14
HCC1954 BREAST | 0.677 ± 0.04
HCT15 LARGE INTESTINE | 1.03 ± 0.026
HELA CERVIX | 1.04 ± 0.023
HMLE3 BREAST | 0.986 ± 0.082
HMT3552 BREAST | 1.06
HOS BONE | 1 ± 0.027
HOSMNG BONE | 1.01 ± 0.088
HS57T BREAST | 1.02 ± 0.051
HS578T BREAST | 0.986 ± 0.061
HSSYII SYNOVIAL | 0.872 ± 0.069
HT1080 SOFT TISSUE | 1.04 ± 0.048
HU09 BONE | 0.983 ± 0.077
JIMT1 BREAST | 0.99 ± 0.016
JURKAT HAEMATOPOIETIC AND LYMPHOID TISSUE | 1 ± 0.027
KPD BONE | 0.961 ± 0.049
LM7 BONE | 0.914 ± 0.098
MCF7 BREAST | 0.925 ± 0.062
MDAMB134 BREAST | 1.04 ± 0.28
MDAMB157 BREAST | 0.981 ± 0.036

same assay, conditions: 1 nM; exposure time: 5 days

Test System | surviving fraction
22RV1 PROSTATE | 1.01 ± 0.059
93VU HEADNECK | 1.08 ± 0.058
143B BONE | 1.011 ± 0.0042
A549 LUNG | 1.03 ± 0.064
ASKA SYNOVIAL | 1.11 ± 0.015
BT20 BREAST | 1.08 ± 0.071
BT549 BREAST | 1.06 ± 0.055
CADOES1 SOFT TISSUE | 1.02 ± 0.097
CAL51 BREAST | 0.977 ± 0.035
CAL120 BREAST | 0.9817 ± 0.0068
CASKI CERVIX | 0.951 ± 0.033
CHLA90 AUTONOMIC GANGLIA | 1.04 ± 0.099
CME SYNOVIAL | 1.09 ± 0.063
COLO320DM LARGE INTESTINE | 1.11 ± 0.049
DU4475 BREAST | 0.979 ± 0.16
H23 LUNG | 1.06 ± 0.052
HCC38 BREAST | 0.947 ± 0.062
HCC70 BREAST | 1.12 ± 0.082
HCC78 LUNG | 1.14 ± 0.23
HCC202 BREAST | 1.17 ± 0.39

Test System | surviving fraction
HCC1806 BREAST | 1.08 ± 0.048
HCC1954 BREAST | 0.711 ± 0.052
HCT15 LARGE INTESTINE | 1.07 ± 0.029
HELA CERVIX | 1.09 ± 0.035
HMLE3 BREAST | 0.959 ± 0.04
HMT3552 BREAST | 1.09
HOS BONE | 1.04 ± 0.011
HOSMNG BONE | 0.996 ± 0.12
HS57T BREAST | 1.01 ± 0.031
HS578T BREAST | 1.05 ± 0.06
HSSYII SYNOVIAL | 0.813 ± 0.031
HT1080 SOFT TISSUE | 1.03 ± 0.025
HU09 BONE | 0.982 ± 0.16
JIMT1 BREAST | 1.03 ± 0.04
JURKAT HAEMATOPOIETIC AND LYMPHOID TISSUE | 1.06 ± 0.036
KPD BONE | 0.945 ± 0.078
LM7 BONE | 0.959 ± 0.086
MCF7 BREAST | 0.918 ± 0.038
MDAMB134 BREAST | 1.04 ± 0.088
MDAMB157 BREAST | 0.967 ± 0.12

same assay, conditions: 5 nM; exposure time: 5 days

Test System | surviving fraction
22RV1 PROSTATE | 1.02 ± 0.044
93VU HEADNECK | 1.08 ± 0.09
143B BONE | 1.04 ± 0.014
A549 LUNG | 1.01 ± 0.039
ASKA SYNOVIAL | 1.2 ± 0.058
BT20 BREAST | 1.11 ± 0.059
BT549 BREAST | 1.16 ± 0.18
CADOES1 SOFT TISSUE | 0.977 ± 0.1
CAL51 BREAST | 0.937 ± 0.029
CAL120 BREAST | 0.937 ± 0.03
CASKI CERVIX | 1.01 ± 0.014
CHLA90 AUTONOMIC GANGLIA | 1.07 ± 0.07
CME SYNOVIAL | 1.29 ± 0.11
COLO320DM LARGE INTESTINE | 0.994 ± 0.036
DU4475 BREAST | 1.03 ± 0.27
H23 LUNG | 1.03 ± 0.055
HCC38 BREAST | 1.02 ± 0.2
HCC70 BREAST | 1.16 ± 0.045
HCC78 LUNG | 1.03 ± 0.13
HCC202 BREAST | 0.964 ± 0.22

Test System | surviving fraction
HCC1806 BREAST | 1.12 ± 0.063
HCC1954 BREAST | 0.84 ± 0.087
HCT15 LARGE INTESTINE | 1.03 ± 0.042
HELA CERVIX | 1.07 ± 0.036
HMLE3 BREAST | 0.882 ± 0.05
HMT3552 BREAST | 1.01
HOS BONE | 1.04 ± 0.037
HOSMNG BONE | 1.02 ± 0.1
HS57T BREAST | 0.938 ± 0.04
HS578T BREAST | 1.04 ± 0.025
HSSYII SYNOVIAL | 0.606 ± 0.04
HT1080 SOFT TISSUE | 1.01 ± 0.031
HU09 BONE | 1.03 ± 0.089
JIMT1 BREAST | 1.018 ± 0.0059
JURKAT HAEMATOPOIETIC AND LYMPHOID TISSUE | 1.01 ± 0.026
KPD BONE | 0.991 ± 0.094
LM7 BONE | 1.07 ± 0.044
MCF7 BREAST | 0.948 ± 0.074
MDAMB134 BREAST | 1.01 ± 0.083
MDAMB157 BREAST | 0.932 ± 0.069

same assay, conditions: 10 nM; exposure time: 5 days

Test System | surviving fraction
22RV1 PROSTATE | 1.07 ± 0.056
93VU HEADNECK | 1.11 ± 0.05
143B BONE | 1.02 ± 0.067
A549 LUNG | 1.02 ± 0.069
ASKA SYNOVIAL | 1.12 ± 0.021
BT20 BREAST | 1.13 ± 0.061
BT549 BREAST | 1.19 ± 0.13
CADOES1 SOFT TISSUE | 0.973 ± 0.046
CAL51 BREAST | 0.849 ± 0.052
CAL120 BREAST | 0.888 ± 0.025
CASKI CERVIX | 1.02 ± 0.073
CHLA90 AUTONOMIC GANGLIA | 1.01 ± 0.014
CME SYNOVIAL | 1.14 ± 0.14
COLO320DM LARGE INTESTINE | 0.997 ± 0.21
DU4475 BREAST | 0.998 ± 0.13
H23 LUNG | 1.04 ± 0.02
HCC38 BREAST | 1.11 ± 0.22
HCC70 BREAST | 1.14 ± 0.07
HCC78 LUNG | 0.986 ± 0.11
HCC202 BREAST | 1.04 ± 0.26

Test System | surviving fraction
HCC1806 BREAST | 1.14 ± 0.06
HCC1954 BREAST | 1.01 ± 0.12
HCT15 LARGE INTESTINE | 1.07 ± 0.048
HELA CERVIX | 1.1 ± 0.032
HMLE3 BREAST | 0.79 ± 0.025
HMT3552 BREAST | 0.895
HOS BONE | 1.1 ± 0.042
HOSMNG BONE | 1.03 ± 0.035
HS57T BREAST | 0.829 ± 0.05
HS578T BREAST | 1.01 ± 0.04
HSSYII SYNOVIAL | 0.434 ± 0.0065
HT1080 SOFT TISSUE | 1 ± 0.0068
HU09 BONE | 1.07 ± 0.061
JIMT1 BREAST | 1.02 ± 0.0097
JURKAT HAEMATOPOIETIC AND LYMPHOID TISSUE | 1.04 ± 0.021
KPD BONE | 0.984 ± 0.024
LM7 BONE | 0.982 ± 0.048
MCF7 BREAST | 0.931 ± 0.036
MDAMB134 BREAST | 0.922 ± 0.078
MDAMB157 BREAST | 0.768 ± 0.035
